Laboratory results taken from patent publication US9593149B2, “Amylin and calcitonin receptor agonist” (Novo Nordisk A/S, priority 2014, dated 2017).
In brackets after ≈: the same amount, converted by molar mass. Numbered stars: 1 amine (or outer) side, 2 acyl side, 3 side chain; on linkers, the order of the positions; unused ones are H or OH. Square brackets hold non-standard residues; d marks the D form. Side chains are listed from the residue outwards. Peptide text beside a SMILES is read from it. * marks the point of attachment. C20 diacid = O=C(O)CCCCCCCCCCCCCCCCCCC(=O)*; γGlu = O=C(O)[C@H](CCC(=O)[*:2])N[*:1]

Columns and labels:
[1] = molecular target: T1, rat calcitonin receptor (Rattus norvegicus, UniProt P32214); test: Assay (VIII) binding to the rat calcitonin receptor; conditions: membranes; read-out: rCT-R binding IC50
T1 construct: expressed in transfected cells; host or cells: BHK tk'ts 13 (transient, FuGENE 6)
T1 sequence (P32214 25-479 isoform P32214-2 limits assumed): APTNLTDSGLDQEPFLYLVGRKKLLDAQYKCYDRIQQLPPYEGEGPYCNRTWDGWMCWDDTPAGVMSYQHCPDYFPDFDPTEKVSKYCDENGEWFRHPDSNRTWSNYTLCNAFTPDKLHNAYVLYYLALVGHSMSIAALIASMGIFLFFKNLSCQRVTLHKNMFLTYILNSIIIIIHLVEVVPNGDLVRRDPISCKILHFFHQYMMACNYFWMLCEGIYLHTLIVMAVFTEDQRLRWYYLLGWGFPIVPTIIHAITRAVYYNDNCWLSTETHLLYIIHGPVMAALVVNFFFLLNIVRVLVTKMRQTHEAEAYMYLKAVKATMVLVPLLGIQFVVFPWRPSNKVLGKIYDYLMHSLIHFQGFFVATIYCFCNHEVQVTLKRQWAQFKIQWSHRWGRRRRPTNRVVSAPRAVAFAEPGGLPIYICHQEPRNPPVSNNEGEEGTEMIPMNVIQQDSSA
Outline: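 Affinity given as IC50 from a one-site competition fit of bound radioactivity, counted by scintillation after cold HBSS washes and NaOH/SDS lysis. Membranes came from BHK tk'ts 13 cells transiently expressing the rat receptor; other conditions followed the human calcitonin receptor protocol.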

[2] = Assay (IV) determination of solubility; format: physicochemical
Protocol: Assay (IV)—Determination of Solubility
The mimylin peptide was dissolved in water at ˜500 nmol/ml and mixed 1:1 with a series of buffers (100 mM glycylglycine pH 3.0, 100 mM glycylglycine pH 4.0, 100 mM glycylglycine pH 5.0, 100 mM bistrispropane pH 6.0, 100 mM bistrispropane pH 6.5, 100 mM bistrispropane pH 7.0, 100 mM bistrispropane pH 7.5, 100 mM bistrispropane pH 8.0).

| IC50 [1] [nM] | Solubility ([2]; pH 3.0) | Solubility ([2]; pH 4.0) | Solubility ([2]; pH 5.0) | Solubility ([2]; pH 6.0) | Solubility ([2]; pH 6.5) | Solubility ([2]; pH 7.0) | Solubility ([2]; pH 7.5) | Solubility ([2]; pH 8.0) | solubility at 18 h ([2]; pH 5.0) [µM] | Compound |
| --- | --- | --- | --- | --- | --- | --- | --- | --- | --- | --- |
| 0.042 | ≧200 μM | ≧200 μM | ≧200 μM | ≧200 μM | ≧200 μM | ≧200 μM | ≧200 μM | ≧200 μM |  | CC(=O)N[C@@H](C)C(=O)N[C@@H](CO)C(=O)N[C@@H](CCC(=O)O)C(=O)N[C@@H](CC(C)C)C(=O)N[C@@H](CO)C(=O)N[C@H](C(=O)N[C@@H](C)C(=O)N[C@@H](C)C(=O)N[C@@H](CC(C)C)C(=O)NCC(=O)N[C@@H](CCCNC(=N)N)C(=O)N[C@@H](CC(C)C)C(=O)N[C@@H](CO)C(=O)N[C@@H](C)C(=O)N[C@@H](CCCCNC(=O)CC[C@H](NC(=O)CCCCCCCCCCCCCCCCCCC(=O)O)C(=O)O)C(=O)N[C@@H](CC(C)C)C(=O)N[C@@H](Cc1cnc[nH]1)C(=O)N[C@@H](CCC(=O)O)C(=O)N[C@@H](CC(C)C)C(=O)N[C@@H](C)C(=O)N[C@H](C(=O)N[C@@H](CC(C)C)C(=O)N1CCC[C@H]1C(=O)N[C@@H](CCCNC(=N)N)C(=O)N[C@H](C(=O)N[C@@H](CCC(=O)O)C(=O)N[C@H](C(=O)NCC(=O)N[C@@H](CO)C(=O)NCC(=O)N[C@@H](CO)C(=O)N1CCC[C@H]1C(N)=O)[C@@H](C)O)[C@@H](C)O)[C@@H](C)O)[C@@H](C)O [compound 69, [N-terminal(acetyl), des1, 16K(C20 diacid-gGlu), 30S, 31G]mimylin] (Ac-ASELSTAALGRLSAK([γGlu-C20 diacid])LHELATLPRTETGSGSP-NH2) |
| 0.017 | ≧200 μM | ≧200 μM | ≧200 μM | ≧200 μM | ≧200 μM | ≧200 μM | ≧200 μM | ≧200 μM |  | CC(C)C[C@H](NC(=O)[C@H](C)NC(=O)[C@H](C)NC(=O)[C@@H](NC(=O)[C@H](CO)NC(=O)[C@H](CC(C)C)NC(=O)[C@H](CCC(=O)O)NC(=O)[C@H](CO)NC(=O)[C@H](C)NC(=O)CC[C@H](NC(=O)CCCCCCCCCCCCCCCCCCC(=O)O)C(=O)O)[C@@H](C)O)C(=O)NCC(=O)N[C@@H](CCCNC(=N)N)C(=O)N[C@@H](CC(C)C)C(=O)N[C@@H](CO)C(=O)N[C@H](CCC(=O)O)C(=O)N[C@@H](CCC(=O)O)C(=O)N[C@@H](CC(C)C)C(=O)N[C@@H](Cc1cnc[nH]1)C(=O)N[C@@H](CCC(=O)O)C(=O)N[C@@H](CC(C)C)C(=O)N[C@@H](C)C(=O)N[C@H](C(=O)N[C@@H](CC(C)C)C(=O)N1CCC[C@H]1C(=O)N[C@@H](CCCNC(=N)N)C(=O)N[C@H](C(=O)N[C@@H](CCC(=O)O)C(=O)N[C@H](C(=O)NCC(=O)N[C@@H](CO)C(=O)NCC(=O)N[C@@H](CO)C(=O)N1CCC[C@H]1C(N)=O)[C@@H](C)O)[C@@H](C)O)[C@@H](C)O [compound 67, [N-terminal(C20 diacid-gGlu), des1, 15e, 30S, 31G]mimylin] ({C20 diacid-γGlu}-ASELSTAALGRLS[dE]ELHELATLPRTETGSGSP-NH2) |
| 0.023 | ≧200 μM | ≧200 μM |  | ≧200 μM | ≧200 μM | ≧200 μM | ≧200 μM | ≧200 μM | 73 (≈ 273 µg/mL) | CC(C)C[C@H](NC(=O)[C@H](C)NC(=O)[C@H](C)NC(=O)[C@@H](NC(=O)[C@H](CO)NC(=O)[C@H](CC(C)C)NC(=O)[C@H](CCC(=O)O)NC(=O)[C@H](CO)NC(=O)[C@H](C)NC(=O)CC[C@H](NC(=O)CCCCCCCCCCCCCCCCCCC(=O)O)C(=O)O)[C@@H](C)O)C(=O)NCC(=O)N[C@@H](CCCNC(=N)N)C(=O)N[C@@H](CC(C)C)C(=O)N[C@@H](CO)C(=O)N[C@@H](C)C(=O)N[C@@H](CCC(=O)O)C(=O)N[C@@H](CC(C)C)C(=O)N[C@@H](Cc1cnc[nH]1)C(=O)N[C@@H](CCC(=O)O)C(=O)N[C@@H](CC(C)C)C(=O)N[C@@H](C)C(=O)N[C@H](C(=O)N[C@@H](CC(C)C)C(=O)N1CCC[C@H]1C(=O)N[C@@H](CCCNC(=N)N)C(=O)N[C@H](C(=O)N[C@@H](CCC(=O)O)C(=O)N[C@H](C(=O)NCC(=O)N[C@@H](CO)C(=O)NCC(=O)N[C@@H](CO)C(=O)N[C@@H](Cc1ccc(O)cc1)C(N)=O)[C@@H](C)O)[C@@H](C)O)[C@@H](C)O [compound 59, [N-terminal(C20 diacid-gGlu), des1, 30S, 31G, 33Y]mimylin] ({C20 diacid-γGlu}-ASELSTAALGRLSAELHELATLPRTETGSGSY-NH2) |
